Laboratory results taken from patent US7384934B2, “Piperazine substituted aryl benzodiazepines” (Eli Lilly and Company, priority 2002, dated 2008).
Counter-ions that a name gives are not always drawn.

Assays:
Dopamine D2 receptor = target: T1, Dopamine D2 receptor (Homo sapiens, UniProt P14416); assay: Dopamine D2 receptor binding assay ([125I]iodospiperone); details: relative Ki scale of Table 5; read-out: Relative D2 Receptor Binding Affinity Ki
T1 construct: purchased Receptor Biology (now owned by NEN) RBHD2CM
T1 sequence (P14416 1-414 isoform P14416-2): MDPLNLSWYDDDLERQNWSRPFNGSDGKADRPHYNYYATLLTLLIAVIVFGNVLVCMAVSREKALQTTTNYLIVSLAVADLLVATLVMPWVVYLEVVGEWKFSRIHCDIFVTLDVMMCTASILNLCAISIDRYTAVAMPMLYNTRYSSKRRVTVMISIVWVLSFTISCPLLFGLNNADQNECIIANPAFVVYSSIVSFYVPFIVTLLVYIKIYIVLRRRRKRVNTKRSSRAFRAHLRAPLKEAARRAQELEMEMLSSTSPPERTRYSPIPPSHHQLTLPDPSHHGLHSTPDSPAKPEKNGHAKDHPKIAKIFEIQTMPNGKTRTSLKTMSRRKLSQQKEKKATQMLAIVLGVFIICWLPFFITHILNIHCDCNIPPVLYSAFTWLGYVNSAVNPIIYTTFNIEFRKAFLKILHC
Description: The assay buffers used are 50 mM Tris-HCl pH 7.4, 120 mM NaCl, 5 mM KCl, 5 mM MgCl2, 1 mM EDTA for the Dopamine D2s receptor binding assay. […] The membranes used are from Receptor Biology (now owned by NEN), Cat # RBHD2CM for the D2 receptor.
Compounds are obtained as 10 mM stocks in 100% DMSO. They are diluted to 1 mM in 100% DMSO by adding 180 μL DMSO to 20 μL of stock in 96 well plates using a multidrop. […] This is done using a TECAN robot.
The radioligand is diluted in assay buffer to provide 0.1 nM for the D2 assay. Each vial of membranes is diluted up to 92 mL in assay buffer. The final assay volume is 250 μL consisting of 210 μl of diluted membranes, 20 μL of compound or 10% DMSO for total binding, and 20 μL of diluted radioligand. The compounds are transferred from drug dilution plates into coming 96 well assay plates using a 96 well Multimek pipettor. Radioligand and membranes are added to assay plates using multidrop pipettors. Non-specific binding is determined in wells containing a final concentration of 5 μM haloperidol. The final drug concentration range in half logs is from 10 μM down to 0.1 nM.
After addition of drug, membrane, and ligand, the plates are incubated for 2 hours at room temperature. During this time 96 well Millipore filter plates (MAFBNOB50) are soaked for a least 30 minutes with 200 μL per well of 0.5% polyethyleneimine.
The 0.5% PEI is removed from filterplate wells using a TiterTek MAP aspirator and 200 μL of the incubation mixture is transferred from the incubation plate to the filterplate after mixing. This transfer is done using the 96 tip Mutimek pipettor. After transfer to the filterplate filterplates are extracted and ished twice with 220 μL per well of cold buffer on the MAP aspirator. The peel away bottoms are removed from the filterplates and 60 μL per well of microscint 20 scintillation fluid is added per well using a multidrop. […]

| melting point | Ki (Dopamine D2 receptor) [nM] | Structure (SMILES) |
| --- | --- | --- |
| 48 to 56 °C | – | COCC[C@H]1CN(C2=Nc3ccccc3Nc3ccc(C(F)(F)F)cc32)CCN1C [Example 221, (S)-2-Trifluoromethyl-11-[3-(2-methoxy-ethyl)-4-methyl-piperazin-1-yl]-5H-dibenzo[b,e][1,4]diazepine] |
| 90 °C | – | COCC[C@H]1CN(C2=Nc3ccc(F)cc3Nc3sc(C)cc32)CCN1 (as salt: hydrochloride) [Example 248b, (S)-6-Fluoro-10-[3-(2-methoxy-ethyl)-piperazin-1-yl]-2-methyl-4H-3-thia-4,9-diaza-benzo[f]azulene dihydrochloride] |
| 118 to 124 °C | – | Cc1cc2c(s1)Nc1ccccc1N=C2N1CCN(C)[C@@H](CO)C1 [Example 259, (R)-[1-Methyl-4-(2-methyl-4H-3-thia-4,9-diaza-benzo[f]azulen-10-yl)-piperazin-2-yl]-methanol] |
| 74 to 88 °C | – | Cc1cc2c(s1)Nc1ccccc1N=C2N1CCN(C)C(COc2ccccc2)C1 (stereo in doubt) [Example 271, (R)-10-(4-Methyl-3-phenoxymethyl-piperazin-1-yl)-2-methyl 4H-3-thia-4,9-diaza-benzo[f]azulene] |
| 63 °C (dec.) | 100 to 1000 | COCC[C@H]1CN(C2=Nc3ccccc3Nc3ccc(C)cc32)CCN1 [Example 199, (S)-2-Methyl-11-[3-(2-methoxy-ethyl)-piperazin-1-yl]-5H-dibenzo[b,e][1,4]diazepine] |
| 230 °C | – | Cc1cc2c(s1)Nc1cc(F)ccc1N=C2N1CCN(C)[C@@H](CCO)C1.Cl.Cl |
| 205 °C | – | COCC[C@H]1CN(C2=Nc3ccccc3Nc3ccc(Cl)cc32)CCN1C (as salt: hydrochloride) |
| 64 to 81 °C | – | Cc1cc2c(s1)Nc1ccccc1N=C2N1CCN[C@@H](COc2ccccc2)C1 [Example 244, (R)-10-(3-Phenoxymethyl-piperazin-1-yl)-2-methyl-4H-3-thia-4,9-diaza-benzo[f]azulene] |
| 193 to 195 °C | – | CCOCC[C@H]1CN(C2=Nc3cc(F)ccc3Nc3sc(C)cc32)CCN1C.Cl.Cl |
| 192 to 194 °C | – | COCC[C@H]1CN(C2=Nc3cc(F)ccc3Nc3sc(C)cc32)CCN1C.Cl |
| 210 °C | – | COCC[C@H]1CN(C2=Nc3ccccc3Nc3ccc(C(C)C)cc32)CCN1C (as salt: hydrochloride) |
| 174 to 176 °C | – | COCC[C@H]1CN(C2=Nc3ccc(Cl)cc3Nc3sc(C)cc32)CCN1C (as salt: hydrochloride) [Example 291, (S)-6-Chloro-10-[3-(2-methoxy-ethyl)-4-methyl-piperazin-1-yl]-2-methyl-4H-3-thia-4,9-diaza-benzo[f]azulene dihydrochloride] |
| 60 °C (dec.) | 100 to 1000 | COCC[C@H]1CN(C2=Nc3ccccc3Nc3ccc(C)cc32)CCN1C [Example 216, (S)-2-Methyl-11-[3-(2-methoxy-ethyl)-4-methyl-piperazin-1-yl]-5H-dibenzo[b,e][1,4]diazepine] |
| 76 to 80 °C | – | COC[C@H]1CN(C2=Nc3ccccc3Nc3sc(C)cc32)CCN1C [Example 260, (R)-10-(3-Methoxymethyl-4-methyl-piperazin-1-yl)-2-methyl-4H-3-thia-4,9-diaza-benzo[f]azulene] |
| > 250 °C (dec.) | 100 to 1000 | Cc1cc2c(s1)Nc1ccccc1N=C2N1CCN[C@H](CCO)C1.Cl.Cl [Example 241, (R)-2-[4-(2-Methyl-4H-3-thia-4,9-diazabenzo[f]azulene-10-yl)-piperazin-2-yl]ethanol dihydrochloride] |
| > 250 °C (dec.) | 10 to 100 | Cc1cc2c(s1)Nc1ccccc1N=C2N1CCN[C@@H](CCO)C1.Cl.Cl [Example 240, (S)-2-[4-(2-Methyl-4H-3-thia-4,9-diazabenzo[f]azulene-10-yl)-piperazin-2-yl]ethanol dihydrochloride] |
| 198 to 202 °C (dec.) | – | COCC[C@H]1CN(C2=Nc3cc(F)c(F)cc3Nc3sc(C)cc32)CCN1 [Example 254, (S)-6,7-Difluoro-10-[3-(2-methoxy-ethyl)-piperazin-1-yl]-2-methyl-4H-3-thia-4,9-diaza-benzo[f]azulene] |
